{"source": "patent US20240376143A1", "about": "“SELECTION INHIBITION OF DNA POLYMERASE BETA BY A COVALENT INHIBITOR” (The Johns Hopkins University, priority 2021, published 2024)", "key": {"DNA polymerase β (Pol β)": {"target": "DNA polymerase β (Pol β) (Homo sapiens, UniProt P06746)", "settings": "30 min preincubation; Paul et al.; cited from earlier work"}, "UWB1.289 (BRCA1−/−)": {"test_system": "UWB1.289 (BRCA1−/−)", "assay": "clonogenic assay, BRCA1 deficient ovarian cancer cells", "assay_type": "cell-based", "settings": "1 μM", "procedure": "(§1) The medium was removed, and the cells were resuspended in fresh media (10 mL). […] The excess dye was removed by washing with water twice.\nUWB1.289 cells (6×106) were seeded with RPMI 1640/MEGM medium (10 mL) into a 100 mm plate prior to transfection so cells would be adherent and ˜80% confluent on the first day of transfection, which was determined by manual inspection. Transfection was completed as follows: • 1. Lipofectamine RNAiMAX (60 μL) was diluted in Opti-MEM reduced serum medium to 1 mL. • 2. In a separate tube, siRNA (either siNT or siPol β, 10 μM, 60 μL, […]) was diluted in Opti-MEM (500 μL). • 3. The Lipofectamine solution was split (2×500 μL aliquots) and mixed with either siNT or siPol β solution to form the lipid-RNA complex at 25° C. for 5 min. • 4. The RPMI 1640/MEGM medium was removed and replaced with Opti-MEM medium (9 mL). After 5 min incubation, the lipid-RNA solution (1 mL) was added to the cells. Cells were incubated at 37° C. in a 5% CO2 humidified incubator. The following day, steps 1-3 were repeated. and the resulting 2×500 μL solutions were added to the existing cells that had been incubating at 37° C., 5% CO2 for 24 h. Transfected cells were allowed to incubate for an additional 48 h at 37° C., 5% CO2 after the second addition of siRNA. […]"}, "UWB1.289+BRCA1": {"test_system": "UWB1.289+BRCA1", "assay": "clonogenic assay, BRCA1 complemented ovarian cancer cells", "assay_type": "cell-based"}, "MCF-7": {"test_system": "MCF-7", "assay": "clonogenic assay, BRCA1 proficient breast cancer cells", "assay_type": "cell-based", "settings": "1 h", "procedure": "as §1"}, "MDA-MB-436": {"test_system": "MDA-MB-436", "assay": "clonogenic assay, BRCA1 deficient breast cancer cells", "assay_type": "cell-based", "settings": "1 h", "procedure": "as §1"}, "[1]": {"test_system": "MEFs lacking Pol β (Pol β−/−)", "assay": "cell viability assay for MEFs lacking Pol β", "assay_type": "cell-based, mouse", "settings": "MMS alone", "description": "Mouse embryonic fibroblasts (Pol β1 WT, Pol β−/−, Pol λ WT, Pol λ−/−, Pol β−/λ−) were seeded at a density of ˜0.3×10^6 cells/well in 6-well dishes. […] Control wells were treated with an equal volume of vector (50% MeCN in H2O). Cells were washed with 1×PBS and fresh medium was added. Dishes were incubated for 5 days at 34° C. in a 10% CO2 incubator until untreated control cells were approximately 80% confluent. Cells (triplicate wells for each treatment concentration were counted by a cell lysis procedure (described previously), and the results were expressed as the surviving fraction of cells in drug-treated wells relative to control wells."}, "Pol η": {"target": "T1, Pol η (Homo sapiens, UniProt Q9Y253)", "T1 construct": "purchased EnzyMax", "T1 sequence (Q9Y253 1-713)": "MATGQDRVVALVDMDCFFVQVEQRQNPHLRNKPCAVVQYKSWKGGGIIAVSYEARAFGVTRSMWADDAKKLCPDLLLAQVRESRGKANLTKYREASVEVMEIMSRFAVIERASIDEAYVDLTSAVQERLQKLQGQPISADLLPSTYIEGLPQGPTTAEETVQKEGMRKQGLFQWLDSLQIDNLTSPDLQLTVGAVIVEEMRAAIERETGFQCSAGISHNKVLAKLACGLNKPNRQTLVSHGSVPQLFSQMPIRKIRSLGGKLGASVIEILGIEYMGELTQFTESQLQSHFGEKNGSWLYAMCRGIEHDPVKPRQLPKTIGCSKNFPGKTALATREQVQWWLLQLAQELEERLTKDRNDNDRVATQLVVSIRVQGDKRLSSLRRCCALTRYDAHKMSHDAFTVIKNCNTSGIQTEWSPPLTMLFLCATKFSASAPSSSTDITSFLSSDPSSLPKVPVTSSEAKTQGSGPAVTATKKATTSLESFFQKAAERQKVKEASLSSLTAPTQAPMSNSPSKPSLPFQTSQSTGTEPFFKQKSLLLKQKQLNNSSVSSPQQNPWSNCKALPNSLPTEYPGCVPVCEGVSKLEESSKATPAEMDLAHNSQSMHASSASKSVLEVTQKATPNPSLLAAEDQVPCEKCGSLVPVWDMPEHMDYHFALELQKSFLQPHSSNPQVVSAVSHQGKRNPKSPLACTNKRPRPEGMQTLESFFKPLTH", "assay": "primer extension assay (Pol η)", "assay_type": "biochemical", "settings": "10 μM", "procedure": "(§2) A 10× working solution of 14 (5 or 100 μM) was prepared in 1:1 MeCN/H2O. A 10× preincubation mixture was prepared by mixing a 50× working solution of polymerase (250 nM) with an aliquot of the inhibitor (5 or 100 μM, 10×) in 1× reaction buffer (50 mM Tris·HCl, 50 mM NaCl, 5 mM MgCl2, 5 mM DTT, 0.1 mg/mL BSA, 10% glycerol, pH 7.5) (see Table 19 for volumes). The concentration of the preincubation mixture was 50 nM polymerase (10×) and 0, 0.5 or 10 μM 14 (1×).\n(§3) The samples containing 50 nM polymerase and 14 (0, 0.5, or 10 μM) were preincubated at 25° C. for 20 min. After preincubation, an aliquot (2 μL, pol η or 3 μL, pol λ) was diluted with 10× ternary complex (pol η: 2 μL, 500 nM D4 or pol λ: 3 μL, 100 nM TC5), 10× dNTPs (5 mM; 2 μL, pol η or 3 μL, pol λ), and 1× reaction buffer (14 μL., pol η or 21 μL, pol λ) (see Table 20 for volumes). While the samples were incubated at 37° C., aliquots (pol η: 0, 2, 5, 10, 15, 20 min, 3 μL or pol λ: 0, 5, 15, 20, 30 min, 5 μL) were removed and quenched by the addition of 95% formamide, 20 mM EDTA loading buffer (10 μL). Aliquots were heated at 95° C. for 5 min, spun down, and loaded onto a 20% denaturing PAGE and run for 4 h at 55 watts. The gel was exposed in a radiography cassette, which was scanned using a Phosphorimager."}, "Pol λ": {"target": "T2, Pol λ (Homo sapiens, UniProt Q9UGP5)", "T2 sequence (Q9UGP5 1-575)": "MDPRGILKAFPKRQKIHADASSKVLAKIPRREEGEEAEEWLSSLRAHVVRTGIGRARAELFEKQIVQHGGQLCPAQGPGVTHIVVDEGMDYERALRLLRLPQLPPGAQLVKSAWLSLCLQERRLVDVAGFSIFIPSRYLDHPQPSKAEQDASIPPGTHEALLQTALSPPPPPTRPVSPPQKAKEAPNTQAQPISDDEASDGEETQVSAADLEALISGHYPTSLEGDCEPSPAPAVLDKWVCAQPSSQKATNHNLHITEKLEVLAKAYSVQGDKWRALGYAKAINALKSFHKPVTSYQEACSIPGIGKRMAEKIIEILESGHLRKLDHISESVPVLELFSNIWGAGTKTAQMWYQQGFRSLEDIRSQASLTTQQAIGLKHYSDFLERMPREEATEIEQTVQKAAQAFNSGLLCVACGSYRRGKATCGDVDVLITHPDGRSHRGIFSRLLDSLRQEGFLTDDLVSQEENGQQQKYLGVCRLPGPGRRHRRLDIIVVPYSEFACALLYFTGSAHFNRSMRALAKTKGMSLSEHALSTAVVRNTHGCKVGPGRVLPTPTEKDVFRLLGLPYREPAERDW", "assay": "primer extension assay (Pol λ)", "assay_type": "biochemical", "settings": "10 μM", "procedure": "as §2, §3"}}, "data": [{"smiles": "COc1cc(Cl)c(C=NOC2CC(n3cc(CNC(=O)c4cc5cccc(O)c5cc4O)c(=O)[nH]c3=O)OC2COP(=O)(O)OCC2CC(O)OC2O)c(Cl)c1O", "note": "(stereo not drawn) [Compound 2]", "values": [{"measurement": "IC50", "setting": "DNA polymerase β (Pol β)", "value": 400, "unit": "nM"}]}, {"smiles": "O=C(c1cc(Cc2n[nH]c(=O)c3ccccc23)ccc1F)N1CCN(C(=O)C2CC2)CC1", "note": "[Olaparib]", "values": [{"measurement": "cytotoxicity as a function of treatment time", "setting": "UWB1.289 (BRCA1−/−)", "value": "proportional to incubation time"}, {"measurement": "toxicity", "setting": "UWB1.289+BRCA1; 1 h treatment", "value": "modestly toxic"}, {"measurement": "cytotoxicity upon prolonged treatment, compared with pro-1", "setting": "UWB1.289+BRCA1; time course", "value": "more cytotoxic"}, {"measurement": "toxicity compared with pro-1", "setting": "MCF-7", "value": "more toxic"}, {"measurement": "cell killing compared with pro-1", "setting": "MDA-MB-436", "value": "more effective at killing BRCA1−/− cells at a lower concentration"}]}, {"smiles": "COS(C)(=O)=O", "note": "[MMS, methyl methanesulfonate]", "values": [{"measurement": "toxicity compared with WT MEFs", "setting": "[1]", "value": "considerably more toxic"}]}, {"smiles": "O=C(NC1CC(n2cc(CNC(=O)c3cc4cc(Br)ccc4c(Br)c3O)c(=O)[nH]c2=O)OC1COP(=O)(O)OCC1CC(O)OC1O)c1cc(-c2ccc(Cl)cc2)oc1C(F)(F)F", "note": "(stereo not drawn) [Compound 14]", "values": [{"measurement": "Pol η activity retained", "setting": "Pol η", "value": "approximately 50%"}, {"measurement": "Pol λ activity relative to untreated enzyme", "setting": "Pol λ", "value": "more than 25%"}]}]}
